Assay results reported in patent US20250064941A1, “SIGLEC LIGANDS, CONJUGATES, AND METHODS OF USE THEREOF” (Osprey Biopharmaceuticals, Inc., priority 2023, published 2025).

Columns and labels:
[1] = molecular target: T1, human Siglec-2/CD22 protein (Homo sapiens, UniProt P20273); assay: SPR binding affinity to human CD22; conditions: steady-state analysis
T1 construct: purchased Acro Biosystems SI2-H82E3
T1 sequence (P20273 20-847): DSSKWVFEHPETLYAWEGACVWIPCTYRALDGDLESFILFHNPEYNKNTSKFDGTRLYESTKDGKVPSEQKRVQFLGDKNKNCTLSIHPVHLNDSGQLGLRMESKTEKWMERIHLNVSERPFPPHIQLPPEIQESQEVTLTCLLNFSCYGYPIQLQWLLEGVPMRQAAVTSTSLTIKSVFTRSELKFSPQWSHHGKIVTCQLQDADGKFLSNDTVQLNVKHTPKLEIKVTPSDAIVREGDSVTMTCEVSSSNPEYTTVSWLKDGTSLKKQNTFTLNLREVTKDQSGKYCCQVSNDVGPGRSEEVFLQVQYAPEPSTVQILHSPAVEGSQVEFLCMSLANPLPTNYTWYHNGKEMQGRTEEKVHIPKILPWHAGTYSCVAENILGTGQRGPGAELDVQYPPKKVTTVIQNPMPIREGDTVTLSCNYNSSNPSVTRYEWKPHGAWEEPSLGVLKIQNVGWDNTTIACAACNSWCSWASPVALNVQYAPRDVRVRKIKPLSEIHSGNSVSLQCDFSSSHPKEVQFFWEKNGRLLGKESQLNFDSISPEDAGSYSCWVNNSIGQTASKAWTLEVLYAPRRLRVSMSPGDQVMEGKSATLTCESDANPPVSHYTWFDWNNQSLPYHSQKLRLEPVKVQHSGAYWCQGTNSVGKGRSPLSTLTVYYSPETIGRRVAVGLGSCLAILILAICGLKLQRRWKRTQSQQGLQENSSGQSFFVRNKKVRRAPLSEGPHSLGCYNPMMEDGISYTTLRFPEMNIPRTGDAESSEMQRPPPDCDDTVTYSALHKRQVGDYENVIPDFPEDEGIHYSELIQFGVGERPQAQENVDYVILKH
Method in brief: (§1)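 SialoExo pretreatment, 4 h 37° C.; biotinylated CD22 on SA chip, Biacore 8K. Buffer 10 mM HEPES, 150 mM NaCl, 0.05% Tween-20, pH 7.5, 1% DMSO. Dissociation 120 s; solvent-corrected; steady-state KD.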

[2] = molecular target: cynomolgus Siglec-2/CD22 (Macaca fascicularis, UniProt A0A2K5WCZ6); assay: biochemical; format: binding; conditions: SPR, steady-state analysis; read-out: Affinity cyno CD22
Chain of cynomolgus Siglec-2/CD22 (A0A2K5WCZ6 entry or part of it): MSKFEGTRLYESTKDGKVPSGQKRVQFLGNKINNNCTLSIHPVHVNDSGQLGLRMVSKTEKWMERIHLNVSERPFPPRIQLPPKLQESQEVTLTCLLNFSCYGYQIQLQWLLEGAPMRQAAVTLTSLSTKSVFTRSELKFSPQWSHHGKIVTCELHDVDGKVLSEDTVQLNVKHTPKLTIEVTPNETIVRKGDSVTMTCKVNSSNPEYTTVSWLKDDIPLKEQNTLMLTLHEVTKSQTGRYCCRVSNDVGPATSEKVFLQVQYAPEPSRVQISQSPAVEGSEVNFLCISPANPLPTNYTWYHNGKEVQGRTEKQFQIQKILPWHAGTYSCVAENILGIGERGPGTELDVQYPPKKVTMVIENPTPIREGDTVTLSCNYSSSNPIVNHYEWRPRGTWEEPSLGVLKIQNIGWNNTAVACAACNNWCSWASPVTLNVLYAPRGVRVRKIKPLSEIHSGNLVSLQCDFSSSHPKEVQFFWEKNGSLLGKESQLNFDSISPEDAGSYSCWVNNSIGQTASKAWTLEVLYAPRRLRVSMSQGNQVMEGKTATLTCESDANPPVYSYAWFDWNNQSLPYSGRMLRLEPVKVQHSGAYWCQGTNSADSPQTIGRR
Method in brief: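 SPR with desialylated (SialoExo, 4 h, 37° C.) cynomolgus CD22 amine-coupled to a CM5 chip. Running buffer 10 mM HEPES, 150 mM NaCl, 0.05% Tween-20, pH 7.5, 1% DMSO, with solvent correction; 120 s dissociation. Affinities from steady-state analysis.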

[3] = molecular target: T2, mouse Siglec-2-Fc-Avi (CD22) (Mus musculus, UniProt P35329); assay: SPR binding affinity to mouse CD22; conditions: steady-state analysis
T2 construct: made in house
T2 sequence (P35329 22-708 limits assumed): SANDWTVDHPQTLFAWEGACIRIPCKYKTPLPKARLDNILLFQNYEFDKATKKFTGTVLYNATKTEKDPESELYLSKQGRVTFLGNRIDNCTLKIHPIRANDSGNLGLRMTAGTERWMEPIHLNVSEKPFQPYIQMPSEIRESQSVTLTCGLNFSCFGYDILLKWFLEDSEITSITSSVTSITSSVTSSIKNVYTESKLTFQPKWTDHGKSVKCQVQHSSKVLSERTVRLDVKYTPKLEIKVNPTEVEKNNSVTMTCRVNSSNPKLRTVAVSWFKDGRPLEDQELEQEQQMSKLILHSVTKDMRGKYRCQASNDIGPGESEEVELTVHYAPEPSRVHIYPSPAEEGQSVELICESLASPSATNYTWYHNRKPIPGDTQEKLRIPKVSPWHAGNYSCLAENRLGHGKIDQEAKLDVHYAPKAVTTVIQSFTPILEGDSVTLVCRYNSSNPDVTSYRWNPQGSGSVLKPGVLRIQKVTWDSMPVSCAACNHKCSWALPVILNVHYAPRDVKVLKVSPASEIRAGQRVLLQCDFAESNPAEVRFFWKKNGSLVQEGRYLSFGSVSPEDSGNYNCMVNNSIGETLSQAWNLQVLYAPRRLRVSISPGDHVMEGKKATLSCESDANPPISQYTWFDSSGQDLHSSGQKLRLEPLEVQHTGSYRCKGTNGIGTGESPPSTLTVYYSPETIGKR
Method in brief: as §1

Structure (SMILES)	Kd [1] [µM]	Kd [2] [µM]	Kd [3] [µM]
C#CCOCCOCCO[C@]1(C(=O)O)C[C@H](O)[C@@H](NC(=O)NC)[C@H]([C@H](O)[C@H](O)CNC(=O)Cc2ccc(-c3ccc(O)cc3)cc2)O1 [Compound 70, (2R,4S,5R,6R)-6-((1R,2R)-1,2-dihydroxy-3-(2-(4′-hydroxy-[1,1′-biphenyl]-4-yl)acetamido)propyl)-4-hydroxy-5-(3-methylureido)-2-(2-(2-(prop-2-yn-1-yloxy)ethoxy)ethoxy)tetrahydro-2H-pyran-2-carboxylic acid]	< 1	1 to 10	1 to 10
C#CCOCCOCCO[C@]1(C(=O)O)C[C@H](O)[C@@H](NC(=O)C(C)(C)O)[C@H]([C@H](O)[C@H](O)CNC(=O)Cc2ccc(-c3ccc(O)cc3)cc2)O1 [Compound 71, (2R,4S,5R,6R)-6-((1R,2R)-1,2-dihydroxy-3-(2-(4′-hydroxy-[1,1′-biphenyl]-4-yl)acetamido)propyl)-4-hydroxy-5-(2-hydroxy-2-methylpropanamido)-2-(2-(2-(prop-2-yn-1-yloxy)ethoxy)ethoxy)tetrahydro-2H-pyran-2-carboxylic acid]	1 to 10	1 to 10	> 10
C#CCCOc1ccc(CO[C@]2(C(=O)O)C[C@H](O)[C@@H](NC(=O)CO)[C@H]([C@H](O)[C@H](O)CNC(=O)Cc3ccc(-c4ccc(O)cc4)cc3)O2)cc1O [Compound 73, (2R,4S,5R,6R)-2-((4-(but-3-yn-1-yloxy)-3-hydroxybenzyl)oxy)-6-((1R,2R)-1,2-dihydroxy-3-(2-(4′-hydroxy-[1,1′-biphenyl]-4-yl)acetamido)propyl)-4-hydroxy-5-(2-hydroxyacetamido)tetrahydro-2H-pyran-2-carboxylic acid]	< 1	< 1	< 1
C#CCOCCOCCO[C@]1(C(=O)O)C[C@H](O)[C@@H](NC(=O)CO)[C@H]([C@H](O)[C@H](O)CNC(=O)Cc2ccc(-c3ccc(=O)[nH]c3)cc2)O1 [Compound 74, (2R,4S,5R,6R)-6-((1R,2R)-1,2-dihydroxy-3-(2-(4-(6-oxo-1,6-dihydropyridin-3-yl)phenyl)acetamido)propyl)-4-hydroxy-5-(2-hydroxyacetamido)-2-(2-(2-(prop-2-yn-1-yloxy)ethoxy)ethoxy)tetrahydro-2H-pyran-2-carboxylic acid]	1 to 10	1 to 10	1 to 10
C#CCOCCOCCO[C@]1(C(=O)O)C[C@H](O)[C@@H](NC(=O)CO)[C@H]([C@H](O)[C@H](O)CNC(=O)Cc2ccc(-c3cc[nH]c(=O)c3)cc2)O1 [Compound 75, (2R,4S,5R,6R)-6-((1R,2R)-1,2-dihydroxy-3-(2-(4-(2-oxo-1,2-dihydropyridin-4-yl)phenyl)acetamido)propyl)-4-hydroxy-5-(2-hydroxyacetamido)-2-(2-(2-(prop-2-yn-1-yloxy)ethoxy)ethoxy)tetrahydro-2H-pyran-2-carboxylic acid]	> 10	> 10	> 10
C#CCOCCOCCO[C@]1(C(=O)O)C[C@H](O)[C@@H](NC(=O)C(F)F)[C@H]([C@H](O)[C@H](O)CNC(=O)Cc2ccc(-c3ccc(O)cc3)cc2)O1 [Compound 76, (2R,4S,5R,6R)-5-(2,2-difluoroacetamido)-6-((1R,2R)-1,2-dihydroxy-3-(2-(4′-hydroxy-[1,1′-biphenyl]-4-yl)acetamido)propyl)-4-hydroxy-2-(2-(2-(prop-2-yn-1-yloxy)ethoxy)ethoxy)tetrahydro-2H-pyran-2-carboxylic acid]	< 1	1 to 10	1 to 10
C#CCCOc1ccc(CO[C@]2(C(=O)O)C[C@H](O)[C@@H](NC(=O)CO)[C@H]([C@H](O)[C@H](O)CNC(=O)Cc3ccc(-c4ccc(O)cc4)cc3)O2)cc1 [Compound 77, (2R,4S,5R,6R)-2-((4-(but-3-yn-1-yloxy)benzyl)oxy)-6-((1R,2R)-1,2-dihydroxy-3-(2-(4′-hydroxy-[1,1′-biphenyl]-4-yl)acetamido)propyl)-4-hydroxy-5-(2-hydroxyacetamido)tetrahydro-2H-pyran-2-carboxylic acid]	< 1	< 1	< 1
C#CCOCCOCCO[C@]1(C(=O)O)C[C@H](O)[C@@H](NC(=O)CO)[C@H]([C@H](O)[C@H](O)CNC(=O)Cc2ccc(-c3cccc(O)c3)cc2)O1 [Compound 78, (2R,4S,5R,6R)-6-((1R,2R)-1,2-dihydroxy-3-(2-(3′-hydroxy-[1,1′-biphenyl]-4-yl)acetamido)propyl)-4-hydroxy-5-(2-hydroxyacetamido)-2-(2-(2-(prop-2-yn-1-yloxy)ethoxy)ethoxy)tetrahydro-2H-pyran-2-carboxylic acid]	< 1	1 to 10	1 to 10
C#CCOCCOCCO[C@]1(C(=O)O)C[C@H](O)[C@@H](NC(=O)CO)[C@H]([C@H](O)[C@H](O)CNC(=O)Cc2ccc(-c3ccccc3)nc2)O1 [Compound 79, (2R,4S,5R,6R)-6-((1R,2R)-1,2-dihydroxy-3-(2-(6-phenylpyridin-3-yl)acetamido)propyl)-4-hydroxy-5-(2-hydroxyacetamido)-2-(2-(2-(prop-2-yn-1-yloxy)ethoxy)ethoxy)tetrahydro-2H-pyran-2-carboxylic acid]	1 to 10	> 10	> 10
C#CCOCCOCCO[C@]1(C(=O)O)C[C@H](O)[C@@H](NC(=O)CO)[C@H]([C@H](O)[C@H](O)CNC(=O)Cc2ccc(-c3cccc(C(=O)NC)c3)cc2)O1 [Compound 80, (2R,4S,5R,6R)-6-((1R,2R)-1,2-dihydroxy-3-(2-(3′-(methylcarbamoyl)-[1,1′-biphenyl]-4-yl)acetamido)propyl)-4-hydroxy-5-(2-hydroxyacetamido)-2-(2-(2-(prop-2-yn-1-yloxy)ethoxy)ethoxy)tetrahydro-2H-pyran-2-carboxylic acid]	1 to 10	1 to 10	1 to 10
C#CCOCCOCCO[C@]1(C(=O)O)C[C@H](O)[C@@H](NC(=O)CO)[C@H]([C@H](O)[C@H](O)CNC(=O)Cc2ccc(-c3cccc(C#N)c3)cc2)O1 [Compound 81, (2R,4S,5R,6R)-6-((1R,2R)-3-(2-(3′-cyano-[1,1′-biphenyl]-4-yl)acetamido)-1,2-dihydroxypropyl)-4-hydroxy-5-(2-hydroxyacetamido)-2-(2-(2-(prop-2-yn-1-yloxy)ethoxy)ethoxy)tetrahydro-2H-pyran-2-carboxylic acid]	1 to 10	1 to 10	> 10
C#CCOCCOCCO[C@]1(C(=O)O)C[C@H](O)[C@@H](NC(=O)CO)[C@H]([C@H](O)[C@H](O)CNC(=O)Cc2ccc(-c3cccnc3)cc2)O1 [Compound 82, (2R,4S,5R,6R)-6-((1R,2R)-1,2-dihydroxy-3-(2-(4-(pyridin-3-yl)phenyl)acetamido)propyl)-4-hydroxy-5-(2-hydroxyacetamido)-2-(2-(2-(prop-2-yn-1-yloxy)ethoxy)ethoxy)tetrahydro-2H-pyran-2-carboxylic acid]	1 to 10	> 10	> 10
